From US5843916A, “Cyclic amp analogues, individually and in pairs, to inhibit neoplastic cell growth” (priority 1994, dated 1998)
Where two headings read alike, the source gives them in different places.

What was measured:
[1] = Toxicity in non-tumor BDF1 mice (Table 6); format: in vivo, mouse; settings: mouse, in vivo; for mortality: qd, day 1, read-out: Toxic deaths, No. killed/No. treated
Experimental: (§1) Influence of 8-Cl-cAMP-Na^+ on the life span of
(§2) non-tumor BDF1 mice when delivered i.p. by bolus injection
(§3) When delivered qd, day 1 to nontumor BDF1 mice, the 480 and 288 mg/k

BDF1 mice = assay: Toxicity in non-tumor BDF1 mice (Table 6); format: in vivo, mouse; settings: for Toxic deaths, No. killed/No. treated: qd, day 1
Experimental: as §1, §2, §3

[2] = tested on: MDA-MB-231 mammary carcinoma; assay: Growth of human mammary tumor xenograft, ip infusion (Table 8); format: in vivo, human xenograft in athymic CD-1 mice; settings: 7 days; for % Δ T/T or % Δ T/ΔC: positive = ΔT/ΔC
Experimental: (§4) Based on the findings with the […] leukemia model, the efficacy of the 8-Cl-cAMP-Na+infusions were evaluated in advanced-stage human tumor xenograft models. Tumor fragments of approximately 14 mg were implanted subcutaneously in athymic CD-1 female mice and seven day intraperitoneal infusions of the cyclic nucleotide were initiated three weeks later when mean tumor weights had reached 300-400 mg. Tumor measurements were recorded on the initial day of treatment (staging day) and one day after treatment was completed (staging day +7), and were used to calculate changes in tumor weights.
(§5) *Mean tumor weight per group on staging day.
(§6) $Mean tumor weight per group on staging day +7.
(§7) **Change in test tumor wt (finalinitial)/initial test tumor treatment.
(§8) Denoted by negative value.
(§9) $$Change in test tumor wt/change in control tumor wt. Used where test
(§10) tumor size increased during treatment. Denoted by positive value.

MX-1 mammary carcinoma = assay: as above; format: in vivo, human xenograft in athymic CD-1 mice; settings: 7 days; for % Δ T/T or % Δ T/ΔC: negative = ΔT/T
Experimental: as §4, §5, §6, §7, §8, §9, §10

LOVO Colon carcinoma = assay: Growth of human colon tumor xenograft, ip infusion (Table 9); format: in vivo, human xenograft in athymic CD-1 mice; settings: 7 days
Experimental: as §4, §5, §6, §7, §8, §9, §10

LX-1-Lung carcinoma = assay: Growth of human lung tumor xenograft, ip infusion (Table 9); format: in vivo, human xenograft in athymic CD-1 mice; settings: 7 days
Experimental: as §4, §5, §6, §7, §8, §9, §10

LoVo colon tumors = assay: Subcutaneous infusion in tumor-bearing mice; format: in vivo, human xenograft in athymic NCR-NU mice; settings: sc infusion approximately 42 mg/kg/day (1 mg/mouse), seven days
[3] = tested on: two mammary, one lung, and one colon tumor; assay: Advanced-stage human tumor xenografts, ip infusion; format: in vivo, human xenograft in athymic CD-1 mice; settings: seven day ip infusion
Experimental: as §4

L1210 leukemia = assay: Life span of L1210-inoculated BDF1 mice (Table 7)

Question: Which results are given for `Nc1ncnc2c1nc(Cl)n2[C@@H]1O[C@@H]2COP(=O)(O)O[C@H]2[C@H]1O` [8-Cl-cAMP-Na^+]?
Answer: mortality ([1]; 22 mg/kg ip bolus): 0%; mortality ([1]; 37 mg/kg ip bolus): 0%; mortality ([1]; 62 mg/kg ip bolus): 0%; mortality ([1]; 104 mg/kg ip bolus): 0%; LD50 ([1]; Single ip dose): 195 mg/kg; Toxic deaths, No. killed/No. treated (BDF1 mice; 173 mg/kg ip bolus): 2/5; Toxic deaths, No. killed/No. treated (BDF1 mice; 173 mg/kg ip bolus, listed as 8Cl-cAMP-Na^+): killed 2 of 5 mice; Toxic deaths, No. killed/No. treated (BDF1 mice; 288 mg/kg ip bolus): 5/5; Toxic deaths, No. killed/No. treated (BDF1 mice; 288 mg/kg ip bolus, listed as 8Cl-cAMP-Na^+): lethally toxic for all treated mice; Toxic deaths, No. killed/No. treated (BDF1 mice; 480 mg/kg ip bolus): 5/5; Toxic deaths, No. killed/No. treated (BDF1 mice; 480 mg/kg ip bolus, listed as 8Cl-cAMP-Na^+): lethally toxic for all treated mice; LD10 (BDF1 mice; Single ip dose): 122 mg/kg; Final Mean Tumor Wt ([2]; 37 mg/kg/day, initial 367 mg): 516 mg; % Δ T/T or % Δ T/ΔC ([2]; 37 mg/kg/day): +41%; Final Mean Tumor Wt ([2]; 62 mg/kg/day, initial 375 mg): 471 mg; % Δ T/T or % Δ T/ΔC ([2]; 62 mg/kg/day): +26%; Final Mean Tumor Wt ([2]; 104 mg/kg/day, initial 367 mg): 433 mg; % Δ T/T or % Δ T/ΔC ([2]; 104 mg/kg/day): +18%; Final Mean Tumor Wt (MX-1 mammary carcinoma; 62 mg/kg/day, initial 337 mg): 288 mg; % Δ T/T or % Δ T/ΔC (MX-1 mammary carcinoma; 62 mg/kg/day): -15%; Final Mean Tumor Wt (MX-1 mammary carcinoma; 104 mg/kg/day, initial 346 mg): 323 mg; % Δ T/T or % Δ T/ΔC (MX-1 mammary carcinoma; 104 mg/kg/day): -07%; Final Mean Tumor Wt (MX-1 mammary carcinoma; 173 mg/kg/day, initial 375 mg): 336 mg; % Δ T/T or % Δ T/ΔC (MX-1 mammary carcinoma; 173 mg/kg/day): -10%; Final Mean Tumor Wt (LOVO Colon carcinoma; 37 mg/kg/day, initial 288 mg): 284 mg; % Δ T/T or % Δ T/ΔC (LOVO Colon carcinoma; 37 mg/kg/day, negative = ΔT/T): -01%; Final Mean Tumor Wt (LOVO Colon carcinoma; 62 mg/kg/day, initial 293 mg): 290 mg; % Δ T/T or % Δ T/ΔC (LOVO Colon carcinoma; 62 mg/kg/day, negative = ΔT/T): -01%; % Δ T/T or % Δ T/ΔC (LOVO Colon carcinoma; 104 mg/kg/day): -35%; Final Mean Tumor Wt (LOVO Colon carcinoma; 104 mg/kg/day, initial 288 mg): 317 mg; Final Mean Tumor Wt (LX-1-Lung carcinoma; 37 mg/kg/day, initial 330 mg): 341 mg; % Δ T/T or % Δ T/ΔC (LX-1-Lung carcinoma; 37 mg/kg/day, positive = ΔT/ΔC): +06%; Final Mean Tumor Wt (LX-1-Lung carcinoma; 62 mg/kg/day, initial 327 mg): 277 mg; % Δ T/T or % Δ T/ΔC (LX-1-Lung carcinoma; 62 mg/kg/day, negative = ΔT/T): -15%; Final Mean Tumor Wt (LX-1-Lung carcinoma; 104 mg/kg/day, initial 324 mg): 270 mg; % Δ T/T or % Δ T/ΔC (LX-1-Lung carcinoma; 104 mg/kg/day, negative = ΔT/T): -17%; toxicity (LoVo colon tumors): appeared to be toxic; tumor growth during treatment [3]: caused tumor stasis during treatment; Postinoculation lifespan (T/C) (L1210 leukemia; 0.6 mg/kg/day ip, 24-hr infusion, day 1-5): 100; Postinoculation lifespan (T/C) (L1210 leukemia; 1.7 mg/kg/day ip, 24-hr infusion, day 1-5): 100; Postinoculation lifespan (T/C) (L1210 leukemia; 4.8 mg/kg/day ip, 24-hr infusion, day 1-5): 100; Postinoculation lifespan (T/C) (L1210 leukemia; 13 mg/kg/day ip, 24-hr infusion, day 1-5): 113; Postinoculation lifespan (T/C) (L1210 leukemia; 22 mg/kg/day ip, 24-hr infusion, day 1-5): 126; Postinoculation lifespan (T/C) (L1210 leukemia; 22 mg/kg/day ip, qd, day 1-7): 103; Postinoculation lifespan (T/C) (L1210 leukemia; 37 mg/kg/day ip, 24-hr infusion, day 1-5): 126; Postinoculation lifespan (T/C) (L1210 leukemia; 37 mg/kg/day ip, qd, day 1-7): 93; Postinoculation lifespan (T/C) (L1210 leukemia; 62 mg/kg/day ip, 24-hr infusion, day 1-5): 137; Postinoculation lifespan (T/C) (L1210 leukemia; 62 mg/kg/day ip, qd, day 1-7): 103; Postinoculation lifespan (T/C) (L1210 leukemia; 104 mg/kg/day ip, 24-hr infusion, day 1-5): 137; Postinoculation lifespan (T/C) (L1210 leukemia; 104 mg/kg/day ip, qd, day 1-7): 98; Postinoculation lifespan (T/C) (L1210 leukemia; 173 mg/kg/day ip, 24-hr infusion, day 1-5): 131; toxicity (L1210 leukemia; 288 mg/kg/day ip infusion): toxic; toxicity (L1210 leukemia; 288 mg/kg/day ip infusion, listed as 8Cl-cAMP-Na^+): killed 2 to 5 mice; Postinoculation lifespan (T/C) (L1210 leukemia; 288 mg/kg/day ip, 24-hr infusion, day 1-5, toxic): 128; toxicity (L1210 leukemia; 480 mg/kg/day ip infusion): toxic; toxicity (L1210 leukemia; 480 mg/kg/day ip infusion, listed as 8Cl-cAMP-Na^+): lethally toxic for all treated mice; Postinoculation lifespan (T/C) (L1210 leukemia; 480 mg/kg/day ip, 24-hr infusion, day 1-5, toxic): 93; toxicity (L1210 leukemia; 800 mg/kg/day ip infusion): toxic; toxicity (L1210 leukemia; 800 mg/kg/day ip infusion, listed as 8Cl-cAMP-Na^+): lethally toxic for all treated mice; Postinoculation lifespan (T/C) (L1210 leukemia; 800 mg/kg/day ip, 24-hr infusion, day 1-5, toxic): 62
